Measurements from PubChem BioAssay (NCI).
Several values for one entry are separate records, joined by “and”; a condition that tells them apart may be missing. Equal entries are not always repeated.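 Grown in 96-well plates, cells were treated for 48 hours with each compound at five concentrations. Insufficient inhibition: endpoint recorded as highest concentration tested. Abbreviation: GI50, concentration required for 50% inhibition of growth. At the TGI there is no net growth.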

How the values were obtained:
Experiment in all cases: growth of human tumour cells (NCI), 48 h
HCC-2998 colon = tested on: HCC-2998 colon
MOLT-4 leukemia = tested on: MOLT-4 leukemia
MDA-MB-231 breast = tested on: MDA-MB-231 breast
RPMI-8226 leukemia = tested on: RPMI-8226 leukemia
SF-268 CNS = tested on: SF-268 CNS
HT29 colon = tested on: HT29 colon
SW-620 colon = tested on: SW-620 colon
SK-OV-3 ovarian = tested on: SK-OV-3 ovarian
CCRF-CEM leukemia = tested on: CCRF-CEM leukemia
ACHN renal = tested on: ACHN renal

Row | Compound | GI50 (HCC-2998 colon) | TGI (HCC-2998 colon) | GI50 (MOLT-4 leukemia) | TGI (MOLT-4 leukemia) | GI50 (MDA-MB-231 breast) | TGI (MDA-MB-231 breast) | GI50 (RPMI-8226 leukemia) | TGI (RPMI-8226 leukemia) | GI50 (SF-268 CNS) | TGI (SF-268 CNS) | GI50 (HT29 colon) [µM] | TGI (HT29 colon) | GI50 (SW-620 colon) | TGI (SW-620 colon) | GI50 (SK-OV-3 ovarian) | TGI (SK-OV-3 ovarian) | GI50 (CCRF-CEM leukemia) | TGI (CCRF-CEM leukemia) | GI50 (ACHN renal) | TGI (ACHN renal)
1 | COc1cc(O)c2c(c1)C(=O)c1cc3c(c(O)c1C2=O)C(OC1OC(C)C(O)C(O)C1OC)C(OC)C(C)(O)C3=O (stereo not drawn) | 2.22 µM | 5.14 µM and 12.4 µM | 3.21 µM and 5.19 µM | 11.7 µM and 17.3 µM | 2.66 µM | 9.2 µM | 2.46 µM and 9.76 µM | 59.6 µM and 30.5 µM | 2.56 µM | 15.2 µM and 40.5 µM | 2.44 | 11.8 µM and 8.61 µM | 2.3 µM | 8.38 µM and 5.41 µM | 5.2 µM | 52 µM and 34.8 µM | 3.07 µM and 13.4 µM | > 100 µM and 74.1 µM | 2.4 µM | 12.4 µM
2 | C[C@H](CCCNCCCNCCCN)[C@H]1CC[C@H]2[C@@H]3[C@H](OCCCN)C[C@H]4C[C@H](OCCCN)CC[C@]4(C)[C@H]3C[C@H](OCCCN)[C@]12C | 0.653 µM | 5.02 µM | 1.09 µM | 8.12 µM | 0.652 µM | 18.8 µM | 0.418 µM | 1.54 µM | 1.54 µM | 16.1 µM | 0.821 | 13.8 µM | 0.98 µM | 8.2 µM | 35.7 µM | > 100 µM | 3.82 µM | 31.1 µM | 1.41 µM | 27.7 µM
3 | O=c1c2c3c(sc2nc(N/N=C/c2ccc(Br)cc2)n1Cc1ccccc1)CCCC3 | > 100 µM | > 100 µM | 3.81 µM | > 100 µM | 48 µM | > 100 µM | – | – | 14.1 µM | > 100 µM | > 100 | > 100 µM | 46.2 µM | > 100 µM | > 100 µM | > 100 µM | 7.23 µM | > 100 µM | > 100 µM | > 100 µM
4 | COC1CC(NC(=O)C(F)(F)F)C(OC(C)=O)C(C)O1 (stereo not drawn) | – | > 100 µM | – | > 100 µM | – | > 100 µM | – | > 100 µM | – | > 100 µM | – | > 100 µM | – | > 100 µM | – | > 100 µM | – | > 100 µM | – | > 100 µM
5 | O=C(NN=C1CCCCC1)c1[nH]c2ccc(F)cc2c1-c1ccccc1 | 17.4 µM | 36.4 µM | 22.5 µM | 61.9 µM | 49 µM | > 100 µM | 40.5 µM | > 100 µM | 18.9 µM | > 100 µM | 20.9 | 46.5 µM | 46.9 µM | > 100 µM | 35.1 µM | > 100 µM | 17.7 µM | > 100 µM | 42.6 µM | > 100 µM
6 | CC(=O)Oc1cc2c(OC(C)=O)c(-c3c(C)cc4c(C(C)C)c(OC(C)=O)c(OC(C)=O)cc4c3OC(C)=O)c(C)cc2c(C(C)C)c1OC(C)=O | 4.23 µM and 5.12 µM and 18.4 µM | 8.3 µM and 9.51 µM and 34.3 µM | 4.48 µM and 23.6 µM and 6.76 µM | 14.9 µM and > 100 µM and 21.2 µM | 0.67 µM and 1.58 µM and 3.63 µM | 2.08 µM and 7.6 µM and 12.4 µM | 5.36 µM and 5.79 µM and 7.94 µM | 14 µM and 15.4 µM and 20.4 µM | 6.91 µM and 7.21 µM and 11.7 µM | 39.7 µM and 29 µM and 37.4 µM | – | 40.2 µM and > 74.8 µM and 62.7 µM | 19.6 µM and 4.74 µM and 9.38 µM | 43.7 µM and 9.61 µM and 22.5 µM | 10.4 µM and 25.3 µM | > 39.3 µM and 34.1 µM and 55.8 µM | 0.707 µM and 5.41 µM and 5.98 µM | 4.04 µM and 15.6 µM and 20.7 µM | 5.56 µM and 4.86 µM and 8.79 µM | 13.2 µM and 11.6 µM and 22.8 µM
7 | O=c1c2ccccc2c2ccccc2c(=O)n1Cc1ccc2c(c1)OCO2 | – | > 100 µM | – | > 50.6 µM | – | > 100 µM | – | > 67.4 µM | – | > 100 µM | – | > 100 µM | – | > 100 µM | – | > 100 µM | – | 93.2 µM | – | > 100 µM
8 | COc1cnc2c(c1)C(=O)c1c-2n(CCCNC(C)C)c(=O)c2cc(F)ccc12 | 0.397 µM | 1.75 µM | 0.0362 µM | 0.267 µM | 0.402 µM | 1.57 µM | 0.154 µM | 0.951 µM | 0.207 µM | 1.68 µM | 0.0731 | 0.33 µM | 0.122 µM | 1.33 µM | 0.22 µM | 0.707 µM | 0.111 µM | 10.7 µM | 0.0565 µM | 0.229 µM
9 | Cc1cc2c(c3oc(C4(C)OC4C4OC4C)cc(=O)c13)C(=O)c1c(O)c(C3CC(C)(N(C)C)C(O)C(C)O3)cc(C3CC(N(C)C)C(O)C(C)O3)c1C2=O (stereo not drawn) | – | 0.000891 µM | 9.44e-05 µM and 0.000106 µM | – | – | 0.000547 µM and 0.00161 µM | – | 0.0142 µM and 0.0557 µM and 0.00725 µM | – | – | 0.0025 | 0.0427 µM and 0.131 µM and 0.0337 µM | 4.89e-05 µM and 0.000111 µM | – | 0.00238 µM | – | 0.00013 µM | 0.0499 µM and 0.041 µM | – | 8.08e-05 µM and 0.000153 µM
10 | CCCCCCCCCCCCOC1C(C(CC(=O)N2CCN(c3cccc(C(F)(F)F)c3)CC2)NS(=O)(=O)c2cc(Cl)cc(Cl)c2)OC2OC(C)(C)OC21 (stereo not drawn) | > 100 µM | > 100 µM | > 100 µM | > 100 µM | > 100 µM | > 100 µM | > 100 µM | > 100 µM | > 100 µM | > 100 µM | > 100 | > 100 µM | > 100 µM | > 100 µM | > 100 µM | > 100 µM | – | – | > 100 µM | > 100 µM
11 | O=C(NCc1ccco1)c1ccc(NC2=C(Cl)C(=O)N(Cc3ccccc3)C2=O)cc1 | 22.9 µM | 37.4 µM | 14.7 µM | 38 µM | 24 µM | 62.1 µM | 8.52 µM | 23.6 µM | 17.8 µM | 54.1 µM | 35 | > 100 µM | 51.7 µM | > 100 µM | 53.2 µM | > 100 µM | – | – | – | –
12 | CCN(CC)CCCC(C)N=c1cc(Nc2cc(=NC(C)CCCN(CC)CC)c3cc(OC)ccc3o2)oc2ccc(OC)cc12 (stereo not drawn) | 1.85 µM | 7.14 µM | 0.725 µM | 2.93 µM | 0.666 µM | 1.88 µM | 1.24 µM | 3.41 µM | 2.15 µM | 8.72 µM | 0.588 | 1.97 µM | 0.672 µM | 3.04 µM | 1.31 µM | 4.13 µM | 2 µM | 16.3 µM | – | –
13 | CC(=O)[C@@]1(O)[C@H](C)C[C@H]2[C@@H]3C=C(C)C4=Cc5c(cnn5-c5ccccc5)C[C@]4(C)[C@H]3[C@@H](O)C[C@@]21C | 2.13 µM | 5.73 µM | 0.842 µM | 8.7 µM | 2.04 µM | 5.4 µM | – | – | 2.81 µM | 16.6 µM | 0.946 | 4.38 µM | 1.91 µM | 4.27 µM | 0.76 µM | 10.5 µM | – | 1.72 µM | 2.75 µM | 11.3 µM
14 | COc1cc(OC)c(NC(=O)c2cc3ccccc3cc2O)cc1Cl | 3.73 µM | 13.8 µM | 3.98 µM | 30.3 µM | 1.78 µM | 4.78 µM | 2.82 µM | 10.9 µM | 3.66 µM | 33.4 µM | 4.88 | 30.1 µM | 3.63 µM | 18.8 µM | – | – | – | – | 2.51 µM | 7.19 µM
15 | CN(C)CCOC(c1ccccc1)c1ccccc1 | – | > 100 µM | – | > 100 µM | 15.6 µM | 45.2 µM and > 100 µM | – | > 100 µM | – | – | 23.8 | 45.5 µM and > 100 µM | 35.1 µM | 51.8 µM and > 100 µM | 40.6 µM | 54.8 µM | – | > 100 µM | – | > 100 µM
16 | O=C1OC(c2ccccc2)(c2cc(Br)c(O)c(Br)c2)c2ccccc21 (stereo not drawn) | 19.9 µM | 37.8 µM | 30.4 µM | > 100 µM | 25.9 µM | 86.1 µM | 28.7 µM | 78.5 µM | 28.8 µM | > 100 µM | – | – | 27 µM | > 100 µM | 21.4 µM | 53.7 µM | 38.3 µM | > 100 µM | 34.5 µM | > 100 µM
17 | COc1ccc(CNc2nc3cc(N)cc(N)c3nc2-c2ccccc2)cc1 | 21.8 µM | 51.7 µM | – | – | 2.9 µM | 13.8 µM | – | 15.9 µM | 9.79 µM | 22 µM | 24.5 | 60.2 µM | 12.8 µM | 30 µM | – | – | 3.36 µM | 65.3 µM | 14.9 µM | 33.6 µM
18 | CN(C)CCCNC(=O)c1cncnc1Nc1ccc(OCc2cccc(F)c2)c(Cl)c1 | 1.55 µM | 3.01 µM | 1.67 µM | 3.4 µM | 1.69 µM | 3.14 µM | – | – | 1.81 µM | 3.34 µM | 1.71 | 3.34 µM | 1.85 µM | 3.32 µM | 1.72 µM | 3.23 µM | 1.82 µM | 3.94 µM | 1.7 µM | 3.06 µM
19 | Cc1ccc(-c2nc(N3CCCNCC3)c3oc(-c4ccccc4)nc3n2)cc1 | 1.82 µM | 3.27 µM | 1.79 µM | 3.58 µM | 1.77 µM | 3.27 µM | – | – | 1.83 µM | 3.66 µM | 1.69 | 3.15 µM | 1.68 µM | 3.21 µM | 1.89 µM | 3.31 µM | 1.31 µM | 3.13 µM | 1.79 µM | 3.22 µM
20 | C=C(C)[C@@H]1CC[C@]2(CO)CC[C@]3(C)[C@H](CC[C@@H]4[C@@]5(C)CCC(NCCc6ccc(O)cc6)C(C)(C)[C@@H]5CC[C@]43C)[C@@H]12 (stereo partly drawn) | 0.97 µM | 2.23 µM | 1.38 µM | 3.38 µM | 1.64 µM | 3.09 µM | – | – | 1.86 µM | 3.67 µM | 1.09 | 2.49 µM | 1.41 µM | 2.89 µM | 1.77 µM | 3.21 µM | 1.67 µM | 4.14 µM | 1.62 µM | 2.97 µM
